Data reported in US6410054B1, “Immediate release eplerenone compositions” (G. D. Searle & Co., priority 1998, dated 2002).

Legend:
ADME study: safety = format: in vivo, humans; conditions: single 100 mg oral solution
Experimental: The study employed eight healthy male humans. Each subject received a single 100 mg oral dose of a solution of [^14C]eplerenone (specific activity 0.75 μCi/mg). Plasma, saliva, breath, urine and fecal samples were collected at predetermined intervals and analyzed for sample radioactivity and the concentration of eplerenone and its open lactone ring form. Safety was determined on the basis of laboratory tests, vital signs, and the occurrence and types of adverse events.
Blood samples were collected at −0.5 (predose), 0.5, 1, 1.5, 2, 2.5, 3, 4, 6, 8, 12, 16, 24, 36, 48, 72 and 96 hours post dose. […] Individual fecal samples were collected beginning immediately after dosing and continuing through 0800 hours on day 8. In addition, one predose fecal sample was provided. Saliva samples were taken at 0.5 hour predose and at 0.5, 1, 2, 4, 6, 12, and 24 hours postdose. Breath samples were taken at 0.5 hour predose and at 1, 2, 3, 4, 6, 8, 12, 24, 36, 48 and 72 hours postdose.

renin and aldosterone = test: Treatment of hypertension study: plasma renin and serum aldosterone; format: in vivo, humans
Experimental: The safety and efficacy of a range of doses of eplerenone in the treatment of hypertension relative to placebo were evaluated in a multi-center, randomized, double-blind, placebo-lead-in, parallel group study. […] Four hundred and seventeen patients were randomized to one of eight treatments: (i) placebo BID; […] (iv) eplerenone 400 mg QD; (v) eplerenone 25 mg BID; […] The primary efficacy variable was the change in cuff diastolic blood pressure (ADBP; sitting) measured at trough plasma levels after eight weeks of double blind treatment. The secondary variables measured were the change in trough cuff systolic blood pressure (ΔSBP; sitting), change in 24 hour mean diastolic blood pressure (ΔDBP), and change in 24 hour mean systolic blood pressure (ΔSBP). […] Changes in plasma renin and serum aldosterone after eight weeks of dosing were also analyzed as secondary measures of efficacy.

[1] = Solubility in aqueous solution; format: physicochemical; conditions: also micronized
[2] = set-up: species or system beagle dogs; conditions: female, beagle, dog, in vivo
Experimental: The effect of the particle size of the eplerenone starting material used in the pharmaceutical composition on eplerenone plasma concentrations and relative bioavailability was studied in a dog model. Four healthy female beagle dogs weighing between 8 to 12 kg were intragastrically administered one immediate release (IR) capsule containing the formulation described in Table 30A below followed by about 10 mL of water.
The dogs were fasted for 15 to 20 hours prior to administration of the capsule and were not fed again until at least 4 hours after dose administration. Blood samples (approximately 3 mL) were collected by venipuncture in chilled tubes containing heparin at 0, 0.5, 1, 2, 3, 4, 6, 8 and 24 hours after dose administration. The blood samples were immediately placed on ice. Separation of plasma from the blood samples was complete after about 15 minutes of centrifugation. The resulting plasma samples were frozen at about −20° C. and stored until analyzed. Analysis was performed using an LC/MS/MS procedure.
This study was conducted using the same four dogs for three formulations that were identical except for the particle size of the eplerenone starting material. […]

plasma proteins = test: Binding of radioactivity / [14C]eplerenone to plasma proteins; format: in vitro ADME, humans
Experimental: The mean concentration of total radioactivity in these samples was 2.39 μg/mL.

COC(=O)C1CC2=CC(=O)CCC2(C)C23OC2CC2(C)C(CC[C@@]24CCC(=O)O4)C13 (stereo partly drawn) [eplerenone, methyl hydrogen 9,11α-epoxy-17α-hydroxy-3-oxopregn-4-ene-7α,21-dicarboxylate, γ-lactone]
changes in physical examinations, vital signs or clinical laboratory test results (ADME study: safety): no clinically significant changes
serious adverse effects (ADME study: safety): no serious adverse effects
Plasma Renin Active Mean Change From Baseline (renin and aldosterone; 25 mg BID): 1.2 mU/L
Serum Aldosterone Mean Change From Baseline (renin and aldosterone; 25 mg BID): 7.3 ng/dL
Plasma Renin Active Mean Change From Baseline (renin and aldosterone; 50 mg BID): 15.0 mU/L
Serum Aldosterone Mean Change From Baseline (renin and aldosterone; 50 mg BID): 10.0 ng/dL
Plasma Renin Active Mean Change From Baseline (renin and aldosterone; 50 mg QD): 2.9 mU/L
Serum Aldosterone Mean Change From Baseline (renin and aldosterone; 50 mg QD): 6.0 ng/dL
Plasma Renin Active Mean Change From Baseline (renin and aldosterone; 100 mg QD): 13.9 mU/L
Serum Aldosterone Mean Change From Baseline (renin and aldosterone; 100 mg QD): 10.5 ng/dL
Plasma Renin Active Mean Change From Baseline (renin and aldosterone; 200 mg BID): 32.0 mU/L
Serum Aldosterone Mean Change From Baseline (renin and aldosterone; 200 mg BID): 32.8 ng/dL
Plasma Renin Active Mean Change From Baseline (renin and aldosterone; 400 mg QD): 21.2 mU/L
Serum Aldosterone Mean Change From Baseline (renin and aldosterone; 400 mg QD): 19.2 ng/dL
aldosterone compared to placebo (renin and aldosterone; eight weeks of dosing): increases
total and active renin levels (renin and aldosterone; eight weeks of dosing): increases
solubility in aqueous solution [1]: largely insoluble
increase of relative bioavailability [2]: ~100%
total radioactivity bound to plasma proteins (plasma proteins; 1.5 hour plasma samples, mean): 49.4%
percentage of eplerenone bound (plasma proteins; [14C]eplerenone spiked into frozen control plasma, 14.5 μg/mL): 40.4%
